Columns and labels:
[1] = Plasma drug concentrations and pharmacokinetic analyses; assay type: in vivo, human; conditions: for elimination half-life / mean time to peak concentrations: psilocin glucuronide after 25 mg psilocybin
Protocol: The blood samples were immediately centrifuged, and the plasma was subsequently stored at −80° C. until analysis.
This allows to determine the concentrations of unconjugated psilocin and of psilocin glucuronide which corresponds to the difference between samples that were incubated with and without glucuronidase.

[2] = system: healthy subjects; assay: QTc time; assay type: in vivo, human; conditions: 2.5 hours after psilocybin administration compared with 1 hour before
From the text: Exclusion criteria: Chronic or acute medical condition, including a history of seizures. Current or previous major psychiatric disorder (e.g. psychotic disorders, mania/hypomania, anxiety disorders, and substance abuse). Psychotic disorder in first-degree relatives, not including psychotic disorders secondary to an apparent medical reason, e.g. brain injury, dementia, or lesions of the brain. Illicit substance use (with the exception of cannabis) more than 10 times or any time within the previous two months. History of an angle closure glaucoma. Pregnant or nursing women. Participation in another clinical trial (currently or within the last 30 days). […] A corrected QT time (QTc), calculated by Bazett's formula, of over 450 milliseconds in males and over 470 milliseconds in females. Tobacco smoking (>10 cigarettes/day). Consumption of alcoholic drinks (>10 drinks/week). Bodyweight <45 kg.

[3] = system: healthy subjects; assay: Autonomic measures (blood pressure, heart rate, body temperature, pupil size); conditions: 25 mg psilocybin, healthy subjects
Protocol: Study design: A double-blind, cross-over design was used with two conditions. […] 2) Pretreatment with placebo for 14 days with the last administration on the study day and administration of 25 mg psilocybin 2 hours later. Treatment order was random and counterbalanced. Between the 14 days pretreatment and the study day, there were at least 2 days washout until the next pretreatment phase began.
Autonomic measures: Blood pressure, heart rate, and body temperature were recorded at baseline and repeatedly throughout the session. Blood pressure (systolic and diastolic) and heart rate were measured with an automatic oscillometric device. Body temperature was measured with an ear thermometer as previously described in detail (Hysek et al., 2010). Measures were taken before and at 0, 0.25, 0.5, 0.75, 1, 1.5, 2, 2.5, 3, 4, 5, 6 and 7 hours after psilocybin administration.
Data analysis: Peak (Emax and/or Emin) or peak change from baseline (ΔEmax) values were determined for repeated measures. The values were then analyzed using paired T-tests using Statistica 12 software (StatSoft, Tulsa, OK, USA). The criterion for significance was p<0.05.

[4] = system: healthy subjects; assay: Adverse effects (list of complaints) and adverse events; assay type: in vivo, human
Protocol: (§1) Treatment order was random and counterbalanced.
Adverse effects (list of complaints): The list of complaints (LC) consists of 66 items offering a global score measuring physical and general discomfort (Zerssen, 1976). This scale yields a total adverse effects score and reliably measures physical and general discomfort. The LC list was administered 7 hours after administration of the drug with reference to complaints throughout the entire session.

[5] = system: healthy subjects; assay: Subjective effects, visual analog scales (VAS), clinical study; assay type: in vivo, human; conditions: 25 mg psilocybin
Protocol: as §1
Study procedures: Subjects took part in a 2-hour screening session, two 9.5-hour test sessions where the psilocybin was administered and a 1-hour end-of-study visit. The subjects were informed about the study both verbally and by the approved written consent form regarding the altered state of consciousness, the study procedures and associated risks. The investigator and the subject both personally signed and dated the consent form as confirmation of consent. Subjects were screened using a semi-structured clinical interview for DSM-IV (Diagnostic and Statistical Manual Version 4) (Wittchen et al., 1997) to exclude those with a personal or family (first-degree relative) axis I major psychiatric disorder (acute or past) or a history of illicit drug dependence. Axis I major psychiatric disorders included also addiction disorders. The sessions were conducted in a calm standard hospital room. Only one research subject and one investigator were present during the test sessions. The test sessions began at 9 AM. The subjects then underwent baseline measurements. […] Psilocybin was administered at 11:00 AM. The outcome measures were repeatedly assessed for 7 hours. The subjects were under constant supervision by an investigator until 6 PM. Thus, the subjects were never alone during the 7 hours after drug administration. The subjects were sent home at 6:30 PM.
Subjective Effects Questionnaire (Visual Analog Scales, VAS): VAS was repeatedly used to assess subjective alterations in consciousness over time. Single scales were presented as 100 mm horizontal lines marked with “not at all” on the left and “extremely” on the right. The following VAS items were used: “any drug effect”, “good drug effect”, “bad drug effect”, “drug liking”, “drug high”, “stimulated”, “fear”, “happy”, “content”, “trust”, “talkative”, “perception of time”, “open”, “concentration”, “speed of thinking”, “feeling close to others”, “wanting to be hugged”, “wanting to hug someone”, “desire to be alone”, “desire to be with others”, and “ego dissolution”. The VASs were presented as 100-mm horizontal lines (0-100%), marked from “not at all” on the left to “extremely” on the right. Some VASs were bidirectional (±50%). Marked from “not at all” on the left (−50), to “normal” in the middle (0), to “extremely” on the right (+50).
The criterion for significance was p<0.05.

[6] = after escitalopram pretreatment
[7] = after psilocybin, after escitalopram pretreatment
[8] = after psilocybin, after placebo pretreatment

CN(C)CCc1c[nH]c2cccc(O)c12 [psilocin]
metabolism of psilocin ([1]; after 25 mg psilocybin): metabolized to approximately similar extents to inactive 4-HIAA and psilocin-glucuronide | half-life ([1]; human, plasma, oral, non-glucuronidated (nonconjugated) psilocin after 25 mg psilocybin, read-out: elimination half-life (converted)): 2 h | mean time to maximal plasma concentration ([1]; non-glucuronidated (nonconjugated) psilocin after 25 mg psilocybin): 2 h | conjugation (glucuronidation) in plasma ([1]; samples analyzed with and without glucuronidase): A large proportion of psilocin underwent glucuronidation

CN(C)CCc1c[nH]c2cccc(O[C@@H]3O[C@H](C(=O)O)[C@@H](O)[C@H](O)[C@H]3O)c12 [psilocin glucuronide]
elimination half-life [1, 6]: 5.2 h | mean time to peak concentrations [1, 6]: 3.74 h | elimination half-life ([1]; after escitalopram pretreatment, listed as Glucuronidated psilocin): 4.5 h | elimination half-life ([1]; after placebo pretreatment): 4.5 h | mean time to peak concentrations ([1]; after placebo pretreatment): 3.8 h | elimination half-life ([1]; after placebo pretreatment, listed as Glucuronidated psilocin): 4.1 h | mean time to peak concentrations ([1]; pretreatments not separated): 3.2 to 3.4 h

O=C(O)Cc1c[nH]c2cccc(O)c12 [4-HIAA, 4-hydroxyindole-3-acetic acid]
increase in metabolite concentrations over time ([1]; 4-HIAA compared to the glucuronide): faster

CN(C)CCc1c[nH]c2cccc(OP(=O)(O)O)c12 [Psilocybin, psilocybin]
QTc times [2]: did not increase | body temperature [3]: moderately increased | diastolic blood pressure [3]: moderately increased | heart rate [3]: changed only minimally | pupil size [3]: moderately increased | rate-pressure product [3]: moderately increased | systolic blood pressure [3]: moderately increased | type and amount of adverse events following psilocybin administration ([4]; after escitalopram and placebo pretreatment): comparable | adverse aftereffects: abdominal bloating [4, 7]: one | adverse aftereffects: flash backs [4, 7]: one | adverse aftereffects: headaches [4, 7]: six | adverse aftereffects: lack of energy [4, 7]: one | adverse aftereffects: nausea [4, 7]: one | adverse aftereffects: flash backs [4, 8]: one | adverse aftereffects: headaches [4, 8]: six | adverse aftereffects: nausea [4, 8]: one | adverse aftereffects: vasovagal syncope [4, 8]: one | bad drug effects ([5]; healthy subjects): only moderate | anxiety ([5]; healthy subjects (FIG. 6B)): only moderate
